Measurements: US10201516B2 (The Regents of the University of California, priority 2014, dated 2019)
“Also recorded” adds a separate entry of the source.

Assays:
[1] = test system: K-Ras and CaM interaction; test: CaM pull-down assay of K-Ras/calmodulin interaction; type: cell-based; details: Ras^V12-transformed cells and multiple human pancreatic cancer cell lines (FIG. 5H)
Fzd8 = Fzd8 mRNA expression in PANC1 and PANC2.13 (qPCR); type: cell-based; details: human pancreatic cancer cells (FIG. 13B)
Procedure: (§1) Total RNAs were isolated and purified using QIAGEN RNAeasy kit. 1 μg RNA per specimen was reverse transcribed into cDNA using SuperScript™ First-Strand Synthesis System for RT-PCR (Invitrogen). Possible contamination of genomic DNA was excluded by treatments of DNase I. Quantitative real-time PCR array analysis was performed using SYBR Green (Applied Biosystem). Fold differences and statistical analysis were calculated using the GraphPad Prism 4.00 for Windows (GraphPad Software). The mouse Stem Cell Signaling RT^2Profiler PCR array on 96-well plate (PAMM-047Z) was purchased from SABiosciences.

LEF1 = LEF1 mRNA expression in PANC1 and PANC2.13 (qPCR); type: cell-based; details: human pancreatic cancer cells (FIG. 13B)
Procedure: as §1

[2] = test system: Ras^V12-transformed NIH/3T3 cells; test: Drug sensitization assay (MTS cell viability), Ras-transformed NIH/3T3; type: cell-based, mouse
Procedure: (§2) The dead cells were removed, and MTS assay (Promega, G5430) was performed for determining the percentage of viable cells, according to the manufacturer's instructions. DMSO was used as vehicle control and for normalization.

Rasless MEFs = test: Cell viability of rescued Rasless MEFs; type: cell-based, mouse
Procedure: as §2

CaMKii = test: Western blot of phospho-CaMKii in rescued Rasless MEFs; type: cell-based, mouse
Procedure: Experimental cells were washed twice in ice-cold PBS and lysed in 1% Triton lysis buffer [25 mmol/L Tris pH 7.5, 150 mmol/L NaCl, 1% Triton X-100, 1 mmol/L EDTA, 1 mmol/L EGTA, 20 mmol/L NaF, 1 mmol/L […], and 1 mmol/L DTT] supplemented with a protease inhibitor cocktail (Roche) and cleared by centrifugation. Protein concentrations were determined by the Bio-Rad Protein Assay (Bio-Rad). Equal amounts of protein extracts were resolved using SDS-PAGE (NuPAGE; Invitrogen), transferred to a nitrocellulose membrane, and immunoblotted with primary antibodies indicated, followed by secondary antibodies labeled with either IRDye800 (Rockland) or Alexa Fluor 680 (Molecular Probes) and were visualized using a LI-COR Odyssey scanner. A complete list of primary antibodies is provided in the Extended Experimental Procedures.

PANC1 and PANC2.13 [3] = test: Morphology, viability and proliferating rate of human pancreatic cancer cell lines; type: cell-based
Procedure: as §2

[4] = Toxicity by body weight changes in treated mice; type: in vivo, mouse; details: oral or i.p. prostratin (FIG. 13D)
Procedure: (§3) The drug was daily administrated into either NOD-SCID or athymic nude mice by oral gavages (OG) at 1 mg/kg or intraperitoneal (I.P) injection at 0.5 mg/kg. 10% DMSO, 10% cremophor, and 80% saline solutions were used as the solvent and vehicle control.

PANC1 and PANC2.13 [5] = test: Prevention of subcutaneous human pancreatic xenograft tumors in nude mice; type: in vivo, mouse
Procedure: as §3

[6] = test system: PANC2.13 and PANC1 orthotopic tumors; test: Prevention of orthotopic human pancreatic tumors in NOD-SCID mice; type: in vivo, mouse
Procedure: as §3

PANC1 or PANC2.13 = test: Established subcutaneous human pancreatic xenograft tumors; type: in vivo, mouse
Procedure: as §3

[7] = test system: PANC2.13 and PANC2.03 orthotopic tumors; test: Established orthotopic human pancreatic tumors, burden by human cfDNA in plasma; type: in vivo, mouse; details: treatment from 14th day post-implantation, over time (FIG. 7B)
Procedure: as §3
All blood samples were collected in K2EDTA containing tubes (BD Microtainer, Ref 365974) and centrifuged at 1,500 g for 10 min. Then the supernatants were carefully collected from the top portion of the plasma to eliminate the possibility of cell contaminations. The plasma was stored at −80° C. until further use. The cfDNA was extracted from 100 μL of plasma using NucleoSpin Plasma XS kit (Macherey-Nagel; 740900).
Nucleic acid concentrations in all plasma samples were measured by quantitative polymerase chain reaction (PCR) using the AB7900HT (Applied Biosystems, Foster City, CA, USA) and TaqMan Universal PCR Master Mix (Applied Biosystems) according to the manufacturer's protocol. For quantification of human β-actin genomic DNA in mouse plasma samples, the following custom primers and probe sets were used: […]

[8] = test system: K-Ras^G12V-induced papillomas; test: K-Ras^G12V-induced papilloma in LRIG1cre/ER/LSL-Ras^G12V GEMM; type: in vivo, mouse
Description: (§4) We first used a papilloma model driven by H- or K-Ras^G12V under the control of a skin stem cell promoter, Lrig1 (FIG. 7C) (Jaks et al., Exp Cell Res 316:1422-1428, 2010; Page et al., Cell Stem Cell 13, 471-482, 2013). In this GEMM, tamoxifen inducible Cre recombinase initiates the expression of oncogenic H- or K-Ras^G12V, and the enforced oncogenic Ras expression disrupts the skin hemeostasis during wound healing and further induces papilloma formations (FIG. 7C).
(§5) Lrig1 Cre/ER/LSL Hras and Lrig1 Cre/ER/LSL-Kras^G12D mice have been backcrossed into the FVB/N background over multiple generations to minimize the effects of genetic heterogeneity on tumor development. Cre recombinase was activated in both groups of mice by administering a single dose of 4oht (Tamoxifen), topically applied at 8 weeks of age. On day 7 thereafter, wounding was induced on their backs by cutting a 2 cm incision for papilloma development.

[9] = test system: H-Ras^G12V-induced tumors; test: H-Ras^G12V-induced papilloma in LRIG1cre/ER/LSL-Ras^G12V GEMM; type: in vivo, mouse; details: daily treatment (FIG. 7D)
Description: as §4, §5

HIV-1 = details: cited from earlier work
[10] = PKC activators, literature; cited from earlier work
[11] = Rasless MEFs rescued with H-Ras^V12 (FIG. 13C)
[12] = Rasless MEFs rescued with K-Ras(4B)^V12 (FIG. 13C)
[13] = human pancreatic cancer cells (FIG. 14A right)
[14] = subcutaneous PANC2.13 (FIG. 6D)

CC(=O)O[C@@]12C[C@@H](C)[C@@]3(O)C(C=C(CO)C[C@]4(O)C(=O)C(C)=C[C@@H]34)[C@@H]1C2(C)C (stereo partly drawn) [prostratin, 12-deoxyphorbol-13-acetate]
endogenous interaction between K-Ras and CaM [1]: abolished the endogenous interaction between K-Ras and CaM
expression of Fzd8 (Fzd8): increased expression of Fzd8
expression of β-catenin targeted gene LEF1 (LEF1): reduced the expressions of β-catenin targeted gene, LEF1
sensitivity to prostratin (cell viability) ([2]; H-Ras^V12 or K-Ras^V12-S181D-transformed NIH/3T3 cells (FIG. 5J)): but not H-Ras^V12 or K-Ras^V12-S181D, -transformed NIH/3T3 cells, were sensitive to prostratin
cell viability ([2]; K-Ras^V12-transformed NIH/3T3 cells (FIG. 5J)): dramatically reduced cell viability
cell viability response (Rasless MEFs; [11]): minimal responses
cell viability (Rasless MEFs; [12]): decreased cell viability
phospho-CaMKii response (CaMKii; [11]): minimal responses
phospho-CaMKii (CaMKii; [12]): increased phospho-CaMKii
cell morphology (PANC1 and PANC2.13 [3]; human pancreatic cancer cell lines with mutant K-Ras (FIG. 14A left)): cell morphological changes phenocopying those observed with knock-down of K-Ras or over-expression of Fzd8
cell viability (PANC1 and PANC2.13 [3]; [13]): significantly reduced cell viability
proliferating rate (PANC1 and PANC2.13 [3]; [13]): significantly reduced
systemic toxicity (body weight changes) [4]: no evidence of systemic toxicity; also recorded: no systematically toxic effects
tumor initiation and tumor size by bioluminescence imaging (BLI) (PANC1 and PANC2.13 [5]; subcutaneous PANC2.13 (FIG. 6C)): profoundly suppressed tumor initiation and tumor size
expression of Ki67 (PANC1 and PANC2.13 [5]; [14]): reduced expression of Ki67
tumor growth rate during therapy (PANC1 and PANC2.13 [5]; [14]): dramatically reduced tumor growth rate
average size of established tumors (PANC1 and PANC2.13 [5]; subcutaneous PANC2.13, vs control group (FIG. 6B)): much smaller
frequency of tumor formation (PANC1 and PANC2.13 [5]; subcutaneous xenograft, oral prostratin from one day before implantation, vs vehicle (FIG. 6A)): significantly reduced the frequency of tumor formation
sizes of orthotopic tumors by BLI ([6]; FIG. 6E and FIG. 14B): dramatically reduced the sizes of orthotopic tumors
metastasis to the peritoneum ([6]; FIG. 6E and FIG. 14C): reduced metastasis to the peritoneum
formation of primary tumors in the pancreas (H&E staining) ([6]; FIG. 6F and FIG. 14B): most of prostratin treated mice did not show formation of primary tumors in the pancreas
Ki67 in orthotopic tumors ([6]; FIG. 6G and FIG. 14B): much lower Ki67
tumor burden in the orthotopic sites ([6]; NOD-SCID mice, daily oral treatment, vs control): lower tumor burden
expression of cleaved caspase 3 in subcutaneous tumors (PANC1 or PANC2.13; FIG. 14D): enhanced expression of cleaved caspase 3
growth rate of established subcutaneous tumors (PANC1 or PANC2.13; daily oral treatment from 10 to 14 days post-injection, vs vehicle (FIG. 7A)): significantly reduced growth rate
concentration of human specific cfDNA [7]: dramatically decreased
EMT markers (E-cadherin, vimentin) in K-Ras^G12V-driven skin tumors ([8]; FIG. 7E): maintained strong expression of epithelial maker
growth rate of K-Ras^G12V-induced papillomas ([8]; FIG. 14E): significantly slowed down the growth rate
formation of papillomas driven by K-Ras^G12V ([8]; daily treatment (FIG. 7D)): significantly delayed/reduced the formation of papillomas
initiation of H-Ras^G12V-induced tumors [9]: no effects
CD4 receptor (HIV-1; literature): down-regulating the CD4 receptor
reactivation of latent HIV-1 (HIV-1; memory CD4+ T cells that harbor latent proviruses): reactivates HIV-1
tumor promotion [10]: far less potent for tumor promotion
